Test results published in patent publication US11242508B2, “Methods relating to pluripotent cells” (priority 2014, dated 2022).
Where two headings read alike, the source gives them in different places.

Tests used:
[1] = test system: Bone Marrow somatic cells; assay: Percent of cells demonstrating pluripotent phenotype after stress treatment; type: cell-based, mice; conditions: 1 week-old, after 1 week of stress treatment
Source text: (§1) Stress alteration of mature somatic cells procured from various adult tissues. To examine whether ACCs could be generated not only mature lymphocytes but also other types of somatic cells, brain, skin, muscle, fat, bone marrow, lung and liver were harvested from Oct4-GFP (GOF) mice^8. Cells were isolated from the tissue samples, dissociated into single cells, and treated with different physical and or chemical stress conditions. The efficiency of the process to alter the cells differed as a function of both the source of cells and the stress condition(s) to which the cells were exposed (FIG. 7A). The ability of stress to alter mature cells to express Oct4, differed depending on the derivation of cells, but stress was able to alter cells to express Oct4 to some degree in mature cells derived from all three germ layers (FIG. 7A). ACC colonies derived from any mature tissue expressed pluripotent markers, E-cadherin, Nanog, PCAM-1 and AP (data not shown), and ES specific marker genes (FIG. 7B). Significant physical and chemical stresses altered mature somatic cells to revert to a stem cell state, despite of the source of tissues and derivation of the germ layers.
(§2) Exposure to external stimuli-stress treatment. To give a mechanical stress to mature cells, pasture pipette were heated and then stretched to create lumens approximately 50 microns in diameters, and then broken. Mature somatic cells were then triturated through these pipettes for 20 min, and cultured for 7 days. To provide a hypoxic stimulus to mature cells, cells were cultured in a 5% oxygen incubator for 3 weeks. An under nutrition stimulus was provided to mature cells, by culturing the cells in a basic culture medium for 3 weeks. To expose the mature cells to a physiological stress, they were treated with low pH (pH5.5) solution, and cultured for 7 days. Also, cells were given more serious damage. To create pores in mature cell membranes, cells were treated with SLO (Streptolysin O).
(§3) SLO-treated cells were incubated in HBSS containing 10 μg/mL SLO at 37° C. for 50 min and then cultured in culture medium without SLO for 7 days. Cells exposed to under-nutrition stress were cultured in basal medium for 2 to 3 weeks. […] Cells exposed to “Ca” stress were cultured in culture medium containing 2 mM CaCl2) for 2 weeks.
(§4) Fluorescence-Activated Cell Sorting and Flow Cytometry. Cells were prepared according to standard protocols and suspended in 0.1% BSA/PBS on ice prior to FACS. PI (BD Biosciences) was used to exclude dead cells. Cells were sorted on a BD FACSAria SORP and analyzed on a BD LSRII with BD FACSDiva Software (BD Biosciences).

Muscle somatic cells = assay: as above; type: cell-based, mice; conditions: 1 week-old, after 1 week of stress treatment
Source text: as §1, §2, §3, §4

Lung somatic cells = assay: as above; type: cell-based, mice; conditions: 1 week-old, after 1 week of stress treatment
Source text: as §1, §2, §3, §4

Fat somatic cells = assay: as above; type: cell-based, mice; conditions: 1 week-old, after 1 week of stress treatment
Source text: as §1, §2, §3, §4

Fibroblast = assay: as above; type: cell-based, mice; conditions: 1 week-old, after 1 week of stress treatment
Source text: as §1, §2, §3, §4

mature somatic cells = assay: STAP cell generation with low pH solution containing ATP; type: cell-based; conditions: low pH solution containing ATP versus pH alone
Experimental: When this solution is used in combination with mechanical trituration of mature cells, the results were even more profound. Consequently, described herein is a protocol which incorporates these findings to increase the efficacy of generating STAP cells.
A1. Make a low pH HBSS solution containing ACT as follows and then set aside for use in step A4. […] The pH of this solution is about 3.0.
Place 5 mL of HBSS (with phenol red) [Life Technologies, 14170-161] into a 15 mL tube. Place a clean pH sensor into the HBSS. Titrate in the ACT stock solution, drop by drop, into the HBSS until the desired pH of, e.g., 5.0 is obtained. Mix the solution regularly to ensure that the measurement is accurate.
A4. […] In some embodiments, a volume of 2-3 ml of the cell suspension in a 50 ml tube can be used.

Brain somatic cells = type: cell-based, mice; conditions: 1 week-old, after 1 week of stress treatment
Experimental: Exposure to external stimuli-stress treatment. To give a mechanical stress to mature cells, pasture pipette were heated and then stretched to create lumens approximately 50 microns in diameters, and then broken. Mature somatic cells were then triturated through these pipettes for 20 min, and cultured for 7 days. To provide a hypoxic stimulus to mature cells, cells were cultured in a 5% oxygen incubator for 3 weeks. An under nutrition stimulus was provided to mature cells, by culturing the cells in a basic culture medium for 3 weeks. To expose the mature cells to a physiological stress, they were treated with low pH (pH5.5) solution, and cultured for 7 days. Also, cells were given more serious damage. To create pores in mature cell membranes, cells were treated with SLO (Streptolysin O). […]
Cells were prepared according to standard protocols and suspended in 0.1% BSA/PBS on ice prior to FACS. […] Cells were sorted on a BD FACSAria SORP and analyzed on a BD LSRII with BD FACSDiva Software (BD Biosciences).

NK1-R [2] = type: in vivo, rat; conditions: for IC50: read-out: IC50, tactile hyperalgesia
Experimental: (§5) The highly specific cytotoxin SSP-SAP (20 uL, 1 uM) was injected into the intrathecal (i.t.) space of the male rat spinal cord in order to ablate a large majority of the neurokinin-1 receptor (NK1R)-expressing neurons. Two to 3 weeks later the normally robust hyperalgesic responses to injection of capsaicin (10 uL, 0.1%) in the plantar hindpaw, consisting of mechanical hyperalgesia to stimulation by von Frey filaments and thermal hyperalgesia appearing as a shortening of the latency of withdrawal to a radiant heat source, were almost absent. […] It thus appears that STAP stem cells can restore normal function after specific spinal neuronal loss and present a model for a therapeutic approach to spinal cord injury.
(§6) Adult male S-D rats were first handled for 4-5 days to familiarize them with the test arena, to minimize stress-induced analgesia, and to obtain Naïve and initial Baseline behavioral data. Tactile responsiveness was determined by probing the plantar surface of one hindpaw with a 15 g von Frey filament (VFH), 10 times every 3 secs. Baseline sensitivity, with no treatments and no capsaicin equaled ˜1-2 paw withdrawals per 10 probes. Thermal sensitivity was indicated by the latency for paw withdrawal from a radiant heat source (Hargreaves method: cutoff time set at 18 sec.). Baseline latency ˜16 sec. Before any intrathecal injections, the Naïve rats' responses to capsaicin injection into the hindpaw were determined to be: Tactile: 6 withdrawals/10 VFH probes, and Thermal: 6 sec latency.

NK-1R = type: in vivo, rat
Experimental: as §5
as §6, with “Thermal sensitivity was indicated by the latency for paw withdrawal from a radiant heat source (Hargreaves method: cutoff time set at 18 sec.). Baseline latency ˜16 sec.” left out, “latency. […]” for “latency.”

NK1-R [3] = biological target: T1, NK1-R (Rattus norvegicus, UniProt P14600); type: in vivo; conditions: naïve rats (and rats that received Blank-SAP followed by stem cells, not shown); 30 uL i.t. injection; read-out: IC50, thermal hyperalgesia
T1 construct: from tissue; host or cells: spinal cord of living adult male Sprague-Dawley rats (in vivo, intrathecal dosing)
Experimental: as §5, §6

NK1-R [4] = type: in vivo, rat
Experimental: as §5, §6

T1 sequence (P14600 whole entry): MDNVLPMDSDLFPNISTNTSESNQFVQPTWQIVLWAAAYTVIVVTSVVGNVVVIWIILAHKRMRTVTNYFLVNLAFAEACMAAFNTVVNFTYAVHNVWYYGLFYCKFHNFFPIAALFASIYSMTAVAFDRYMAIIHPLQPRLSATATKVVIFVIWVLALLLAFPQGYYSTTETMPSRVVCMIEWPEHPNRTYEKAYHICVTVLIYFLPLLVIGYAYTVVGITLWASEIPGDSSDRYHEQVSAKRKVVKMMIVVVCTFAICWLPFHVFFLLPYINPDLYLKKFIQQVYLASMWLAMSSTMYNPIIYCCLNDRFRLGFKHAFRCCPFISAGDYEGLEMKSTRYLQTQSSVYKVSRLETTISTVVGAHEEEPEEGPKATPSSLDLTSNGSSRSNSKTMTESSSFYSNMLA

Molecule | Percent of cells demonstrating pluripotent phenotype [1] [%] | Percent of cells demonstrating pluripotent phenotype (Muscle somatic cells) [%] | Percent of cells demonstrating pluripotent phenotype (Lung somatic cells) [%] | Percent of cells demonstrating pluripotent phenotype (Fat somatic cells) [%] | Percent of cells demonstrating pluripotent phenotype (Fibroblast) [%] | Percent of cells demonstrating pluripotent phenotype (Brain somatic cells) [%] | further results
Nc1ncnc2c1ncn2[C@@H]1O[C@H](COP(=O)([O-])OP(=O)([O-])OP(=O)(O)O)[C@@H](O)[C@H]1O.O.[Na+].[Na+] [ATP, Adenosine 5′ Triphosphate Disodium Salt Hydrate] | 12.3 | 68.4 | 9.8 | 79.6 | 25.10 |  | Efficacy of conversion to STAP cells (mature somatic cells): dramatically increased the efficacy of this conversion
[Ca+2].[Cl-].[Cl-] [Ca, CaCl2] | 1.2 | 1.5 | 1.3 | 2.7 | 3.5 | 0.8 | 
FC(F)(F)c1cc(CO[C@H]2CCCN[C@H]2c2ccccc2)cc(C(F)(F)F)c1 [L-733,060] |  |  |  |  |  |  | IC50 (NK1-R [2]; naïve rats (and rats that received Blank-SAP followed by stem cells, not shown), 30 uL i.t. injection): ~300 µM; IC50 (NK1-R [2]; stem cell-restored rats, i.t. injection): ~30 µM; Enhancement of potency for inhibition of capsaicin hyperalgesia (NK-1R; STAP stem cell restored rats over Naïve rats or rats that received Blank-SAP): 10-60 times; Inhibition of the restored hyperalgesic response (NK-1R; STAP stem cell-restored rats, i.t. injection at 300 uM): fully inhibited; IC50 (NK1-R [3]): ~300 µM; IC50 (NK1-R [4]; stem cell-restored rats, i.t. injection, read-out: IC50, thermal hyperalgesia): ~5 µM
COc1cc(CNC(=O)CCCC/C=C/C(C)C)ccc1O [capsaicin] |  |  |  |  |  |  | Tactile response to capsaicin injection into the hindpaw (NK1-R [2]; Naïve rats, before any intrathecal injections, 15 g von Frey filament): 6 withdrawals/10 VFH probes; Thermal response to capsaicin injection into the hindpaw, latency (NK1-R [4]; Naïve rats, before any intrathecal injections, radiant heat, cutoff 18 sec): 6 s
streptolysin O [SLO] | 13.2 | 20.5 | 18.4 | 32.8 | 15.2 | 10.3 | 
